Measured values as given in US20040230257A1, “Enhanced bioavailability of nutrients, pharmaceutical agents, and other bioactive substances through laser resonant homogenization or modification of molecular shape or crystalline form” (priority 2003, published 2004).
Counter-ions that a name gives are not always drawn.

How the values were obtained:
murine macrophages = assay: Nitrite (nitric oxide) production by LPS-stimulated murine macrophages given arginine samples; assay type: cell-based; details: arginine 120 mcg/ml, LPS 1 ng/ml, 24 hours; for Mean O.D. ± S.D. (optical density at 540 nm, a measure of nitrite concentration): 12 wells
Experimental: Paracelsian in Ithaca, N.Y., an outside independent lab, performed the following bioassays. Each arginine sample was added to 12 wells of murine macrophages to achieve a concentration of 120 mcg/ml. This is the estimated serum concentration for a 70 Kg person after ingesting a 6-gram serving of arginine, a level observed in numerous clinical studies to be associated with a wide range of physiologic benefits. LPS at 1 ng/ml was added to each well and the cells were incubated for 24 hours. The nitrite concentration in each well's supernatant was determined 24 hours after initiation of treatment as a relative measure of nitric oxide production.
The results are listed in order of relative nitrite production, from greatest to least. The first column is the Arg #, the second the mean plus or minus the standard deviation of the optical density measurement at 540 nm, a measure of nitrite concentration, and the third column the relative production of nitrites expressed in micrograms per ml as determined from optical density.

[1] = Case report: lupus patient on the laser treated methylation formula; assay type: in vivo, human; details: before entry, only treatment
Description: The exemplary patient had suffered with relapsing lupus for several years. At the time of entry into the methylation formula studies of EXAMPLE 6, they had experienced a relapse of severe disease for several months.
Their disease was characterized by exquisitely tender blistering and ulcerating lesions on their hands and feet that made it difficult to walk or open a cabinet door without severe pain. Their skin was pallid, they were extremely fatigued with a chronic low energy state, and had suffered extensive hair loss. Their sedimentation rate, a marker for systemic inflammation, was highly elevated at 99, whereas a normal level would be 0-30. […] They declined the use of corticosteroids due to severe treatment side effects during a prior relapse.
The subject was randomized to the placebo control group and for 3 months had no improvement in condition. In the second phase of the study, they were placed on a high dose of the methylation formula of 6 grams of laser treated betaine plus cofactors daily. […]
The subject continued on a lower dose of the laser treated methylation formula for 5 more months, reduced to 1-2 grams of the laser treated betaine plus cofactors. […] At the end of fifth month of lower dose treatment, their sedimentation rate had dropped to the very low normal value of 1, the lowest level ever recorded for them.

[2] = Pilot test: blood SAMe level and knee pain in a subject with osteoarthritis; assay type: in vivo, human
Description: As a pilot test, a subject with osteoarthritis had blood SAMe levels measured while taking SAMe and then while taking a betaine formulation. […] On this level of SAMe ingestion for three months, their blood SAMe level was 4.9 (the normal range for this lab is 4.2-8.2). At this time, SAMe was discontinued and they started a methylation formula with one gram of laser treated betaine plus laser treated metabolic cofactors. The betaine and metabolic co-factors were in the same ratios as in the double blind clinical study formula to be described below.
In particular, the dual effect of raising SAMe while reducing homocysteine would be expected to preserve and improve the condition of DNA methylation, as SAMe is the exclusive methyl group donor for DNA methylation.

[3] = cited from earlier work
[4] = betaine 9 grams daily plus vitamin B12, a liver extract and a creatine precursor; placebo 25%; cited from earlier work
[5] = animal studies; cited from earlier work
[6] = X-ray crystallography of control vs laser treated L-arginine hydrochloride; assay type: physicochemical; details: crystallized from deionized water by slow evaporation at room temperature
Experimental: Each sample was dissolved in 0.50 grams of deionized water. The control sample was crystallized by slow evaporation at room temperature over 24 hours. The average room temperature was approximately 26 degrees Centigrade. The average ambient humidity was approximately 33%.
The treated sample was crystallized under the same conditions with the addition of pulsed modulated energy at 532 nm as described for Arg #1 in Example 2 above. The beam was passed through the center of the meniscus of solution in the container.
Crystals from the control and treated samples were selected for further study. Selected crystals all had dimensions of approximately 0.5 mm on a side or less as per the latest standards in the art. The crystal structures were solved using a SMART X-ray diffraction analytical device.

[7] = X-ray crystallography of control vs laser treated betaine hydrochloride; assay type: physicochemical; details: crystals from deionized water
Experimental: The control and treated betaine hydrochloride samples shown in FIGS. 5A, 5B, 5C, 5D, and 5E were prepared by dissolving 0.6 grams of betaine hydrochloride in 3.0 grams of deionized water and placing the solutions thus prepared in 10×35 mm Petri dishes. Crystallization was done in open containers by slow evaporation at room temperature, a procedure often used in the art of crystallography. Ambient humidity was maintained at or below 30 percent with laboratory dehumidifiers. The treated betaine hydrochloride was irradiated with a 670 nm continuous wave diode laser modulated at 10 MHz with a primary beam power of 2.7 milliwatts that was phase conjugated to 1.35 milliwatts. The 5 mm diameter beam was passed through the middle of fluid meniscus of the treated solution during the entire crystallization process. The control untreated betaine hydrochloride was prepared under the same conditions, except that it was not irradiated with the sparse constructive node generating laser system.
X-ray crystallography was performed using a SMART device made by Siemens. FIGS. 5C and 5D show the intermolecular hydrogen bonding of control versus laser treated betaine hydrochloride, respectively. […]

N=C(N)NCCC[C@H](N)C(=O)O [Arg #1, L-arginine]
nitric oxide byproducts produced compared with control untreated Arg #4 (murine macrophages): statistically significantly less | Mean O.D. ± S.D. (optical density at 540 nm, a measure of nitrite concentration) (murine macrophages): .215 ± .007

N=C(N)NCCC[C@H](N)C(=O)O [Arg #2, L-arginine]
nitric oxide byproducts produced compared with control untreated Arg #4 (murine macrophages): statistically significantly less | Mean O.D. ± S.D. (optical density at 540 nm, a measure of nitrite concentration) (murine macrophages): .219 ± .008

N=C(N)NCCC[C@H](N)C(=O)O [Arg #3, L-arginine]
nitric oxide byproducts produced compared with control untreated Arg #4 (murine macrophages): statistically significantly more | Mean O.D. ± S.D. (optical density at 540 nm, a measure of nitrite concentration) (murine macrophages): .232 ± .010

N=C(N)NCCC[C@H](N)C(=O)O [Arg #4, L-arginine]
Mean O.D. ± S.D. (optical density at 540 nm, a measure of nitrite concentration) (murine macrophages): .224 ± .006

CCN(CCO)CCCC(C)Nc1ccnc2cc(Cl)ccc12 (stereo not drawn) [Plaquenil]
relief of lupus symptoms [1]: did little to relieve their symptoms

C[S+](CC[C@H](N)C(=O)[O-])C[C@H]1O[C@@H](n2cnc3c(N)ncnc32)[C@H](O)[C@@H]1O (stereo partly drawn) [SAMe, S-adenosyl-methionine]
blood SAMe level ([2]; 800 mg of SAMe daily for three months, normal range 4.2-8.2): 4.9 | knee pain ([2]; SAMe 800 mg daily, formula with one gram laser treated betaine for one month): moderate degree of relief | anti-depressant effects ([3]; 1600 mg per day): comparable to tricyclic anti-depressant drugs | time to anti-depressant effects ([3]; tricyclic medications 4-6 weeks): within one week

C[N+](C)(C)CC(=O)O [betaine, N,N,N-trimethylglycine]
mortality after one year [4]: no mortality | liver SAMe levels [5]: up to fourfold

Cl.N=C(N)NCCC[C@H](N)C(=O)O [control L-arginine hydrochloride, L-arginine hydrochloride]
crystal form / water in the crystal lattice [6]: monohydrated crystal

Cl.N=C(N)NCCC[C@H](N)C(=O)O [laser treated L-arginine hydrochloride, L-arginine hydrochloride]
crystal form / water in the crystal lattice [6]: free of water in the crystal lattice

C[N+](C)(C)CC(=O)O [treated betaine hydrochloride, betaine hydrochloride]
intermolecular hydrogen bonds per molecule [7]: 3

C[N+](C)(C)CC(=O)O [untreated betaine hydrochloride, betaine hydrochloride]
intermolecular hydrogen bonds per molecule [7]: 4
